The structures appear in SMILES notation.

The values below come from patent US9796711B2, “Substituted pyrazolo[3,4-b]pyridin-6-carboxylic acids and method of use” (AbbVie S.àr.l., priority 2015, dated 2017).

Experiment [1] concerns the target T1, ΔF508-CFTR (Homo sapiens, UniProt P13569, DEL508-508).
T1 construct: host or cells: CFBE41o-, doxycycline-inducible
Description: CFTR cell surface levels using HRP-tagged ΔF508-CFTR expressing CFBE cells, in the presence of a co-corrector. Type of experiment: cell-based. The following applies: HRP-tagged ΔF508-CFTR expressing CFBE cells, in the presence of 3 μM co-corrector; for EC50: read-out: EC50. The essentials: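 Cells were seeded with 0.5 μg/mL doxycycline and held 68 h at 37 °C. Test compounds plus 3 μM co-corrector (final 0.1% DMSO) were then added for 20 h at 33 °C. Washed cells received HRP substrate, and luminescence was normalized between DMSO and 3 μM co-corrector controls.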

The target in experiment [2] is T1, ΔF508-CFTR. The experiment can be described thus: CFTR cell surface levels using HRP-tagged ΔF508-CFTR expressing CFBE cells, intrinsic corrector capacity. The experiment is classed as cell-based. The settings on record: for EC50: read-out: EC50. The essentials: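 Here the cells express ΔF508-CFTR with horseradish peroxidase inserted in extracellular loop 4, so only rescued channel at the surface gives luminescent signal. Compounds act on their own, 20 h at the reduced temperature of 33 °C; values are percent activity relative to DMSO and a 3 μM corrector.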

[3] abbreviates: HRP-tagged ΔF508-CFTR CFBE41o- cells, compounds alone (intrinsic corrector capacity), 20 hours at 33° C., positive control 3 μM corrector.
Setting [4] is: HRP-tagged ΔF508-CFTR CFBE41o- cells, compounds alone (intrinsic corrector capacity), 20 hours at 33° C.
The mark [5] stands for this setting: HRP-tagged ΔF508-CFTR expressing CFBE cells, intrinsic corrector capacity (no co-corrector), 33° C., 20 hours.
Where [6] appears, read: HRP-tagged ΔF508-CFTR CFBE cells, compound alone (intrinsic corrector capacity), 20 hours at 33° C.

T1 sequence (P13569 with tags, fused parts or gaps DEL508-508): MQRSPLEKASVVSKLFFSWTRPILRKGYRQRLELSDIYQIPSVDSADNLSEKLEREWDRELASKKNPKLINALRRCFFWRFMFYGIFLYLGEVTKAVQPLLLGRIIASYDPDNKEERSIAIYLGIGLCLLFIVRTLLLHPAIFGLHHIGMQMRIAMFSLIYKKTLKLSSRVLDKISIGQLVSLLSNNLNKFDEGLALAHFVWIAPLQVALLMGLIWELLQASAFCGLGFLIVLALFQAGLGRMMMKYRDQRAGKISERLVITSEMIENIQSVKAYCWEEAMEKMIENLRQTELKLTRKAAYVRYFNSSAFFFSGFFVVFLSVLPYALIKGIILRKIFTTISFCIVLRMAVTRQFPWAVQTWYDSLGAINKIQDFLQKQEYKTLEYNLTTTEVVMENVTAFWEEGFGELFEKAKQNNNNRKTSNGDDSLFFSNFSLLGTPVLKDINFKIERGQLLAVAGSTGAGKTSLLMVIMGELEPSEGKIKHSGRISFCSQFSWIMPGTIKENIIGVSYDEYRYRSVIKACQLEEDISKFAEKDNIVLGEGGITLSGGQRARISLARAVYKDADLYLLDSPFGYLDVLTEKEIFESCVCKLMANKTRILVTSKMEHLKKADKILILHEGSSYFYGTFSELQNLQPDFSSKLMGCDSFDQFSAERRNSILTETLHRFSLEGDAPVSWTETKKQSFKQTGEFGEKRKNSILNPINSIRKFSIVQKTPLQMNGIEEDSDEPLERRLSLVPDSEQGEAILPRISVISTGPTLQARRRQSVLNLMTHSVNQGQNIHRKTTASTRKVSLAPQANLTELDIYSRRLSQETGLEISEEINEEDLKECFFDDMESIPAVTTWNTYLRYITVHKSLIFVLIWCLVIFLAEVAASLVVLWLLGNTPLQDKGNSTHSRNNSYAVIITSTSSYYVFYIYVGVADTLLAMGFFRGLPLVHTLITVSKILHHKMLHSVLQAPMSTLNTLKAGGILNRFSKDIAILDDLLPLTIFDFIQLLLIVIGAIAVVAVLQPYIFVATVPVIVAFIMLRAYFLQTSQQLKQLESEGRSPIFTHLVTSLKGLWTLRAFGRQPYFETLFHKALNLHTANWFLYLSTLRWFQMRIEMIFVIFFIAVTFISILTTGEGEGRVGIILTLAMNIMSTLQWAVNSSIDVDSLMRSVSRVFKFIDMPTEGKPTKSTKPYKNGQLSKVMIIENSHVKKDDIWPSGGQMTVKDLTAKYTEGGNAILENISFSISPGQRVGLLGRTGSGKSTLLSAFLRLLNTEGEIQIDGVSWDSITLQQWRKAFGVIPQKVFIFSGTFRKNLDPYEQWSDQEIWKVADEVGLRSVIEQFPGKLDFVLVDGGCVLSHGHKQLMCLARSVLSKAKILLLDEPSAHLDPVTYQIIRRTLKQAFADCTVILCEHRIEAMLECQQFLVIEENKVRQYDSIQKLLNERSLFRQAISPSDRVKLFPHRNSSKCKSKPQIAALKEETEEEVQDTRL

Broadly, the EC50 is the concentration that produces a half-maximal response. As for `CC(C)c1nn(-c2cccc(N3CCOCC3)c2)c2nc(C(=O)O)cc(-c3cnc(N4CCC(C#N)CC4)nc3)c12` [compound 204, 4-[2-(4-cyanopiperidin-1-yl)pyrimidin-5-yl]-1-[3-(morpholin-4-yl)phenyl]-3-(propan-2-yl)-1H-pyrazolo[3,4-b]pyridine-6-carboxylic acid], the “% Activation” value turned out to be 589.7% at ΔF508-CFTR [1] and 402.1% at ΔF508-CFTR [2] (setting [3]). Besides, the EC50 at ΔF508-CFTR [1] was 844 nM; on ΔF508-CFTR [2] (setting [4]) it was 1110 nM.

Take `O=C(O)c1cc(N2CCC(N3CCOCC3)CC2)c2c(C3CCC3)nn(-c3cccc(OC(F)F)c3)c2n1` [compound 910, 3-cyclobutyl-1-[3-(difluoromethoxy)phenyl]-4-[4-(morpholin-4-yl)piperidin-1-yl]-1H-pyrazolo[3,4-b]pyridine-6-carboxylic acid]: on ΔF508-CFTR [1], the “% Activation” value was determined as 499.9% and the EC50 amounted to 79.1 nM. Besides, on ΔF508-CFTR [2] (setting [5]), the “% Activation” value worked out at 286.2% and the EC50 turned out to be 187 nM.

Consider `CC(C)c1nn(-c2ccc(F)cc2)c2nc(C(=O)O)cc(N3CCC(N4CCN(C5CC5)CC4)CC3)c12` [compound 754, 4-[4-(4-cyclopropylpiperazin-1-yl)piperidin-1-yl]-1-(4-fluorophenyl)-3-(propan-2-yl)-1H-pyrazolo[3,4-b]pyridine-6-carboxylic acid], for which, on ΔF508-CFTR [1], the “% Activation” value was 467.3% and the concentration for a half-maximal effect (EC50) was determined as 153 nM. At ΔF508-CFTR [2] (setting [5]), the “% Activation” value stood at 254.1% and the EC50 was found to be 385 nM.

Take `Cc1nn(-c2ccccc2)c2nc(C(=O)O)cc(N3CCCCC3)c12` [compound 123, 3-methyl-1-phenyl-4-(piperidin-1-yl)-1H-pyrazolo[3,4-b]pyridine-6-carboxylic acid]: the “% Activation” value is recorded as 267.95% on ΔF508-CFTR [1] and 107.95% at ΔF508-CFTR [2] (setting [3]). Moreover, the EC50 on ΔF508-CFTR [1] came out at 2690 nM; at ΔF508-CFTR [2] (setting [4]), 3280 nM.

On to `CC(C)c1nn(-c2cccc(N3CCCC3)c2)c2nc(C(=O)O)cc(-c3ccc(N4CCC(C#N)CC4)nc3)c12` [compound 222, 4-[6-(4-cyanopiperidin-1-yl)pyridin-3-yl]-3-(propan-2-yl)-1-[3-(pyrrolidin-1-yl)phenyl]-1H-pyrazolo[3,4-b]pyridine-6-carboxylic acid], for which the “% Activation” value was 612.47% at ΔF508-CFTR [1] and 429.93% at ΔF508-CFTR [2] (setting [3]). Besides, the EC50 came to 268 nM on ΔF508-CFTR [1] and 433 nM on ΔF508-CFTR [2] (setting [4]).

For `COC1CCN(c2cc(C(=O)O)nc3c2c(C(C)C)nn3-c2cccc(C)c2)CC1` [compound 192, 4-(4-methoxypiperidin-1-yl)-1-(3-methylphenyl)-3-(propan-2-yl)-1H-pyrazolo[3,4-b]pyridine-6-carboxylic acid], the “% Activation” value on ΔF508-CFTR [1] is reported as 439.45%; on ΔF508-CFTR [2] (setting [3]) it was 276.92%. The figures for the EC50 on ΔF508-CFTR [1] and at ΔF508-CFTR [2] (setting [4]) were 274 nM and 424 nM, respectively.

As for `COCC1CCN(c2cc(C(=O)O)nc3c2c(C(C)C)nn3-c2cccc(C)c2)CC1` [compound 227, 4-[4-(methoxymethyl)piperidin-1-yl]-1-(3-methylphenyl)-3-(propan-2-yl)-1H-pyrazolo[3,4-b]pyridine-6-carboxylic acid], the “% Activation” value on ΔF508-CFTR [1] came out at 452.6%; at ΔF508-CFTR [2] (setting [3]) it was 305.45%. The figures for the concentration giving a half-maximal response (EC50) at ΔF508-CFTR [1] and at ΔF508-CFTR [2] (setting [4]) were 340 nM and 666 nM, respectively.

As to `O=C(O)c1cc(N2CCC(CN3CCCC3)CC2)c2c(C3CCC3)nn(-c3ccccc3)c2n1` [compound 557, 3-cyclobutyl-1-phenyl-4-{4-[(pyrrolidin-1-yl)methyl]piperidin-1-yl}-1H-pyrazolo[3,4-b]pyridine-6-carboxylic acid], on ΔF508-CFTR [1], the “% Activation” value was 418.2% and the EC50 amounted to 200 nM. At ΔF508-CFTR [2] (setting [5]), the “% Activation” value worked out at 221.7% and the concentration for a half-maximal effect (EC50) is 444 nM.

Regarding `CO[C@@H]1CCN(CC2CCN(c3cc(C(=O)O)nc4c3c(C3CCC3)nn4-c3ccccc3)CC2)C1` [compound 803, 3-cyclobutyl-4-(4-{[(3R)-3-methoxypyrrolidin-1-yl]methyl}piperidin-1-yl)-1-phenyl-1H-pyrazolo[3,4-b]pyridine-6-carboxylic acid], the “% Activation” value at ΔF508-CFTR [1] came out at 436%; on ΔF508-CFTR [2] (setting [5]), 229.35%. For the same compound, the EC50 on ΔF508-CFTR [1] was 672 nM; at ΔF508-CFTR [2] (setting [5]), 1020 nM.

In the case of `Cc1cccc(-n2nc(C(C)C)c3c(N4CCC(CO)CC4)cc(C(=O)O)nc32)c1` [compound 213, 4-[4-(hydroxymethyl)piperidin-1-yl]-1-(3-methylphenyl)-3-(propan-2-yl)-1H-pyrazolo[3,4-b]pyridine-6-carboxylic acid], the “% Activation” value at ΔF508-CFTR [1] stood at 456.97%; at ΔF508-CFTR [2] (setting [3]), 247.33%. Moreover, the EC50 turned out to be 382 nM at ΔF508-CFTR [1] and 679 nM on ΔF508-CFTR [2] (setting [4]).

With `CC(F)(F)c1cccc(-n2nc(C3CCC3)c3c(N4CCC(N5CCOCC5)CC4)cc(C(=O)O)nc32)c1` [compound 915], the “% Activation” value on ΔF508-CFTR [1] worked out at 587.95%; at ΔF508-CFTR [2] (setting [6]), 386.2%. The 50% effective concentration (EC50) at ΔF508-CFTR [1] is 50.2 nM; on ΔF508-CFTR [2] (setting [6]), 394 nM.

In the case of `CN1CCC2(CC1)CCN(c1cc(C(=O)O)nc3c1c(C1CCC1)nn3-c1ccccc1)CC2` [compound 699, 3-cyclobutyl-4-(9-methyl-3,9-diazaspiro[5.5]undecan-3-yl)-1-phenyl-1H-pyrazolo[3,4-b]pyridine-6-carboxylic acid], on ΔF508-CFTR [1], the “% Activation” value is 432% and the EC50 amounted to 169 nM. At ΔF508-CFTR [2] (setting [5]), the “% Activation” value amounted to 247.63% and the EC50 came out at 622 nM.

For `CC(C)c1nn(-c2cccc(N3CCOCC3)n2)c2nc(C(=O)O)cc(-c3ccc(N4CCOCC4)cc3)c12` [compound 244, 4-[4-(morpholin-4-yl)phenyl]-1-[6-(morpholin-4-yl)pyridin-2-yl]-3-(propan-2-yl)-1H-pyrazolo[3,4-b]pyridine-6-carboxylic acid], the figures for the “% Activation” value on ΔF508-CFTR [1] and at ΔF508-CFTR [2] (setting [3]) were 514.48% and 320.17%, respectively. Moreover, the half-maximal effective concentration (EC50) turned out to be 458 nM on ΔF508-CFTR [1] and 473 nM at ΔF508-CFTR [2] (setting [4]).

`CC(C)Oc1nn(C2CCCCC2)c2nc(C(=O)O)cc(-c3ccc(CN4CC(N(C)C)C4)cc3)c12` [compound 927, 1-cyclohexyl-4-(4-{[3-(dimethylamino)azetidin-1-yl]methyl}phenyl)-3-[(propan-2-yl)oxy]-1H-pyrazolo[3,4-b]pyridine-6-carboxylic acid]: on ΔF508-CFTR [1], the “% Activation” value turned out to be 362.92% and the EC50 was 1100 nM. Besides, at ΔF508-CFTR [2] (setting [6]), the “% Activation” value is reported as 150.78% and the EC50 was 1250 nM.

As for `O=C(O)c1cc(N2CCC(N3CCOCC3)CC2)c2c(C3CCC3)nn(-c3ccc(F)cc3)c2n1` [compound 679, 3-cyclobutyl-1-(4-fluorophenyl)-4-[4-(morpholin-4-yl)piperidin-1-yl]-1H-pyrazolo[3,4-b]pyridine-6-carboxylic acid], at ΔF508-CFTR [1], the “% Activation” value is listed as 503.6% and the EC50 stood at 299 nM. Further, on ΔF508-CFTR [2] (setting [5]), the “% Activation” value came to 279.5% and the EC50 stood at 370 nM.
